Experimental data from the supplement of paper PMC10307832.

Key:
Assay in all cases: relative viability (nuclei count vs DMSO), 5 days (fraction); higher = more cells survive
[1] = compound: CC1CC(=O)N(C2=CN=C(N=C2N1C3CCCC3)NC4=C(C=C(C=C4)C(=O)NC5CCN(CC5)C)OC)C [NPK76-II-72-1] + CS(=O)(=O)N1CCN(Cc2cc3nc(-c4cccc5[nH]ncc45)nc(N4CCOCC4)c3s2)CC1 [Pictilisib] (partner 1 µM)
Procedure, shortened: (§1)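 Lung cancer cell lines were seeded in 1536-well plates and dosed by pin tool the next day, with either a single drug or a fixed anchor-drug dose combined with five library-drug doses (not always all listed) spaced in √10 steps. Five days later, one step fixed the cells and stained their nuclei (final 0.05% Triton X-100, 1% formaldehyde, 1 ug/ml Hoechst), and nuclei were counted on 4× images. Relative viability is the nuclei count in treated wells divided by the count in vehicle wells, and each value is the median of duplicate plates.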

BI-2536 + Phenformin = compound: CC[C@@H]1C(=O)N(C)c2cnc(Nc3ccc(C(=O)NC4CCN(C)CC4)cc3OC)nc2N1C1CCCC1 [BI-2536] + N=C(N)NC(=N)NCCc1ccccc1 [Phenformin] (partner 250 µM)
Procedure, shortened: as §1

NPK76-II-72-1 + AZD7762 = compound: CC1CC(=O)N(C2=CN=C(N=C2N1C3CCCC3)NC4=C(C=C(C=C4)C(=O)NC5CCN(CC5)C)OC)C [NPK76-II-72-1] + NC(=O)Nc1cc(-c2cccc(F)c2)sc1C(=O)N[C@H]1CCCNC1 [AZD7762] (partner 0.2 µM)
Procedure, shortened: as §1

[2] = compound: CC1CC(=O)N(C2=CN=C(N=C2N1C3CCCC3)NC4=C(C=C(C=C4)C(=O)NC5CCN(CC5)C)OC)C [NPK76-II-72-1] + CC(=O)Nc1cccc(-n2c(=O)n(C3CC3)c(=O)c3c(Nc4ccc(I)cc4F)n(C)c(=O)c(C)c32)c1 [Trametinib] (partner 0.02 µM)
Procedure, shortened: as §1

Row | Cell Line | relative viability ([1]; first compound 0.01 µM) | relative viability ([1]; first compound 0.03162 µM) | relative viability ([1]; first compound 0.1 µM) | relative viability ([1]; first compound 0.3162 µM) | relative viability ([1]; first compound 1 µM) | relative viability (BI-2536 + Phenformin; first compound 0.01 µM) | relative viability (BI-2536 + Phenformin; first compound 0.03162 µM) | relative viability (BI-2536 + Phenformin; first compound 0.1 µM) | relative viability (BI-2536 + Phenformin; first compound 0.3162 µM) | relative viability (BI-2536 + Phenformin; first compound 1 µM) | relative viability (NPK76-II-72-1 + AZD7762; first compound 0.01 µM) | relative viability (NPK76-II-72-1 + AZD7762; first compound 0.03162 µM) | relative viability (NPK76-II-72-1 + AZD7762; first compound 0.1 µM) | relative viability (NPK76-II-72-1 + AZD7762; first compound 0.3162 µM) | relative viability (NPK76-II-72-1 + AZD7762; first compound 1 µM) | relative viability ([2]; first compound 0.01 µM) | relative viability ([2]; first compound 0.03162 µM) | relative viability ([2]; first compound 0.1 µM) | relative viability ([2]; first compound 0.3162 µM) | relative viability ([2]; first compound 1 µM)
1 | NCI-H3122 | 0.625 | 0.618 | 0.601 | 0.652 | 0.63 | 0.38 | 0.34 | 0.137 | 0.158 | 0.127 | 0.88 | 1 | 1.03 | 0.996 | 0.973 | 0.186 | 0.216 | 0.242 | 0.261 | 0.236
2 | NCI-H2087 | 0.895 | 0.838 | 0.895 | 0.722 | 1.04 | 0.477 | 0.503 | 0.173 | 0.0945 | 0.102 | 1.06 | 1.32 | 1.26 | 1.28 | 1.32 | 0.219 | 0.203 | 0.201 | 0.179 | 0.244
3 | LC-2-ad | 0.428 | 0.515 | 0.445 | 0.386 | 0.428 | 0.609 | 0.545 | 0.257 | 0.203 | 0.292 | 0.833 | 0.855 | 0.852 | 0.879 | 0.895 | 0.826 | 0.934 | 0.983 | 0.92 | 0.945
4 | NCI-H1915 | 0.988 | 1.08 | 0.91 | 0.846 | 0.902 | 0.351 | 0.328 | 0.12 | 0.0657 | 0.0862 | 0.709 | 0.751 | 0.665 | 0.647 | 0.726 | 0.286 | 0.307 | 0.294 | 0.313 | 0.295
5 | NCI-H1793 | 0.309 | 0.472 | 0.483 | 0.332 | 0.257 | 0.369 | 0.197 | 0.149 | 0.138 | 0.139 |  | 0.69 | 0.618 | 0.238 | 0.566 |  | 0.389 | 0.408 | 0.511 | 0.401
6 | RERF-LC-KJ | 0.491 | 0.543 | 0.546 | 0.482 | 0.492 | 0.403 | 0.297 | 0.216 | 0.211 | 0.224 | 0.938 | 0.931 | 0.987 | 0.763 | 1.15 | 0.874 | 0.854 | 0.838 | 0.809 | 0.946
7 | LXF-289 | 0.791 | 0.819 | 0.796 | 0.772 | 0.776 | 0.467 | 0.488 | 0.159 | 0.0389 | 0.039 | 1.07 | 1.12 | 0.992 | 1.1 | 1.08 | 0.71 | 0.691 | 0.644 | 0.703 | 0.68
8 | PC-14 | 0.6 | 0.692 | 0.619 | 0.6 | 0.805 | 0.651 | 0.551 | 0.224 | 0.0459 | 0.0271 | 0.356 | 0.312 | 0.337 | 0.358 | 0.344 | 0.741 | 0.848 | 0.698 | 0.678 | 0.798
